Measurements published in patent US20090270394A1, “CYCLYLAMINE DERIVATIVES AS CALCIUM CHANNEL BLOCKERS” (priority 2008, published 2009).

Target: T1, Human Cav2.2 channels (Homo sapiens, UniProt Q00975)
T1 construct: expressed in transfected cells
Experiment: Fluorescent assay for Cav2.2 channels using potassium depolarization to initiate channel opening
Type: cell-based
Conditions: for inhibition at 10 µM: 10 μM compound, read-out: Cav 2.2 Activity % Inh at 10 μM; for inhibition at 30 µM: 30 μM compound, read-out: Cav 2.2 Activity % Inh at 30 μM; for IC50: 30 mM K (block of open and inactivated channels), read-out: Cav 2.2 Activity IC50 at 30 mM K
Excerpt: Human Cav2.2 channels were stably expressed in HEK293 cells along with alpha2-delta and beta subunits of voltage-gated calcium channels. An inwardly rectifying potassium channel (Kir2.3) was also expressed in these cells to allow more precise control of the cell membrane potential by extracellular potassium concentration. At low bath potassium concentration, the membrane potential is relatively negative, and is depolarized as the bath potassium concentration is raised. In this way, the bath potassium concentration can be used to regulate the voltage-dependent conformations of the channels. […] After the incubation period, Cav2.2 channel opening is triggered by addition of higher concentration of potassium (70 mM final concentration) to further depolarize the cell. The degree of state-dependent block can be estimated from the inhibitory potency of compounds after incubation in different potassium concentrations.
Calcium influx through Cav2.2 channels is determined using a calcium sensitive fluorescent dye in combination with a fluorescent plate reader. Fluorescent changes were measured with either a VIPR (Aurora Instruments) or FLIPR (Molecular Devices) plate reader.
• 1. Seed cells in Poly-D-Lysine Coated 96 or 384-well plate and keep in a 37° C.-10% CO2 incubator overnight • 2. […] Incubate in the dark at 25° C. for 60-70 min • 5. Remove dye, wash cells with 0.1 mL (96-well plate) or 0.06 mL (384-well plate) of 4, 12, 25, or 30 mM Potassium Pre-polarization Buffer (PPB) • 6. […] Incubate in the dark at 25° C. for 30 min • 8. Read cell plate on VIPR instrument, Excitation=480 nm, Emission=535 nm • 9. With VIPR continuously reading, add 0.1 mL (96-well plate) or 0.03 mL (384-well plate) of Depolarization Buffer (DB), which is 2× the final assay concentration, to the cell plate.

T1 sequence (Q00975 whole entry): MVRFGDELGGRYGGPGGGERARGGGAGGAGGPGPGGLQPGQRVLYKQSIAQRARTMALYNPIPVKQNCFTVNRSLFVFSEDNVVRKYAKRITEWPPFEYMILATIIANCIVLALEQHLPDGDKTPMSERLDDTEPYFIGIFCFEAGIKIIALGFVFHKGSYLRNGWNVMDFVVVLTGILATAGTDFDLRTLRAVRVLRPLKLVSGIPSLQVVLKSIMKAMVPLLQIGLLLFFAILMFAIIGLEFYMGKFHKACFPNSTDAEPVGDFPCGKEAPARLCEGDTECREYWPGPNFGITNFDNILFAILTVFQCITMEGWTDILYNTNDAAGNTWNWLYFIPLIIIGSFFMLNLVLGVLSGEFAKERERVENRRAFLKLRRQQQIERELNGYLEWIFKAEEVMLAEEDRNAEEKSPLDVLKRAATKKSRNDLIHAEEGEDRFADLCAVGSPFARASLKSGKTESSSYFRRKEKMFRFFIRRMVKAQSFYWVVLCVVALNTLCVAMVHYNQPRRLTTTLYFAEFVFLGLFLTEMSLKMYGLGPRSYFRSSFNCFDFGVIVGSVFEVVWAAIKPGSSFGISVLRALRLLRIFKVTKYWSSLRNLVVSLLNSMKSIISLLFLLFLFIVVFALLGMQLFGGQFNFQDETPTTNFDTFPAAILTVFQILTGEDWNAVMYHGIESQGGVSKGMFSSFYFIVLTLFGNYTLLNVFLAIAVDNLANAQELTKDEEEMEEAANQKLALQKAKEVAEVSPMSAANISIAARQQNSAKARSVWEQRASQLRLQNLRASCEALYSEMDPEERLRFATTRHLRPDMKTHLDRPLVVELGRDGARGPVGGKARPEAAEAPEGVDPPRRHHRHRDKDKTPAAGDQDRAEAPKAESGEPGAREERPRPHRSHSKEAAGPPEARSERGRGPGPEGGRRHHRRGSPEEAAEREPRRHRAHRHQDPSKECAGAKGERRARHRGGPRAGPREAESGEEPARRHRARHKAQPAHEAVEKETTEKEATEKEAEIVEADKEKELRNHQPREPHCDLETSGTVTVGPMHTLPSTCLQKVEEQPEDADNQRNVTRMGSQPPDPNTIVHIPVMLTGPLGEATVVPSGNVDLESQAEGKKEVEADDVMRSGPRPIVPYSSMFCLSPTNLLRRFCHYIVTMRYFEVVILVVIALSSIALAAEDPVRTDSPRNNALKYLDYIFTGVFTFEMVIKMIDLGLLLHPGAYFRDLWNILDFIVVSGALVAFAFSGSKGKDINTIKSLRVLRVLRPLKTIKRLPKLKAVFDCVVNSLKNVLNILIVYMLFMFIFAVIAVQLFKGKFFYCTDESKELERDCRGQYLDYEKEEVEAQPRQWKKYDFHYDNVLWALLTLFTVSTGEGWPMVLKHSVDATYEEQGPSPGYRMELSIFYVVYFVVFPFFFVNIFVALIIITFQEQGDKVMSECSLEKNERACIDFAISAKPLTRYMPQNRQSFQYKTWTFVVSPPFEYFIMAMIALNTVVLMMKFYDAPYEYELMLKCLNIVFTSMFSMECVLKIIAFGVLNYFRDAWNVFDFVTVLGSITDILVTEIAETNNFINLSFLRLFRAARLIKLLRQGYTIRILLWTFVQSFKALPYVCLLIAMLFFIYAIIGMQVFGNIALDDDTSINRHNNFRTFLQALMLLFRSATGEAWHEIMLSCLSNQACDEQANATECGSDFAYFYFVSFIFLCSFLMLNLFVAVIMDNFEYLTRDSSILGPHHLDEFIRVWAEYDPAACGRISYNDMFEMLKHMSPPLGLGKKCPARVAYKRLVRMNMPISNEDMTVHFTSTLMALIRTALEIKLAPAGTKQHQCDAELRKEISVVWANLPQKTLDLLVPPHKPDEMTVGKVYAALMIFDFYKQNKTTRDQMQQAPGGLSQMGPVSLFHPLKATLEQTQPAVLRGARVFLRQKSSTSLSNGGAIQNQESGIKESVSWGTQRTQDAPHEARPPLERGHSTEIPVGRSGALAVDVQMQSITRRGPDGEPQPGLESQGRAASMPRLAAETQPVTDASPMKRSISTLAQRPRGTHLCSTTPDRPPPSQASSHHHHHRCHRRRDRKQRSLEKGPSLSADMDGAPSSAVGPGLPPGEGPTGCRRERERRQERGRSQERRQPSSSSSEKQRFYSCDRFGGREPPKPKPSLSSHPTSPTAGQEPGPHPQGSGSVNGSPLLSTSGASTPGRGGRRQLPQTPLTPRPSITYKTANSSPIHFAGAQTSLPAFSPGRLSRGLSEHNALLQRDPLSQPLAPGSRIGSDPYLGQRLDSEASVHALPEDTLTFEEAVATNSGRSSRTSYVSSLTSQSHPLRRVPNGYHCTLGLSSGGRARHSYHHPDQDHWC
T1 sequence (P54289 25-1103 partner): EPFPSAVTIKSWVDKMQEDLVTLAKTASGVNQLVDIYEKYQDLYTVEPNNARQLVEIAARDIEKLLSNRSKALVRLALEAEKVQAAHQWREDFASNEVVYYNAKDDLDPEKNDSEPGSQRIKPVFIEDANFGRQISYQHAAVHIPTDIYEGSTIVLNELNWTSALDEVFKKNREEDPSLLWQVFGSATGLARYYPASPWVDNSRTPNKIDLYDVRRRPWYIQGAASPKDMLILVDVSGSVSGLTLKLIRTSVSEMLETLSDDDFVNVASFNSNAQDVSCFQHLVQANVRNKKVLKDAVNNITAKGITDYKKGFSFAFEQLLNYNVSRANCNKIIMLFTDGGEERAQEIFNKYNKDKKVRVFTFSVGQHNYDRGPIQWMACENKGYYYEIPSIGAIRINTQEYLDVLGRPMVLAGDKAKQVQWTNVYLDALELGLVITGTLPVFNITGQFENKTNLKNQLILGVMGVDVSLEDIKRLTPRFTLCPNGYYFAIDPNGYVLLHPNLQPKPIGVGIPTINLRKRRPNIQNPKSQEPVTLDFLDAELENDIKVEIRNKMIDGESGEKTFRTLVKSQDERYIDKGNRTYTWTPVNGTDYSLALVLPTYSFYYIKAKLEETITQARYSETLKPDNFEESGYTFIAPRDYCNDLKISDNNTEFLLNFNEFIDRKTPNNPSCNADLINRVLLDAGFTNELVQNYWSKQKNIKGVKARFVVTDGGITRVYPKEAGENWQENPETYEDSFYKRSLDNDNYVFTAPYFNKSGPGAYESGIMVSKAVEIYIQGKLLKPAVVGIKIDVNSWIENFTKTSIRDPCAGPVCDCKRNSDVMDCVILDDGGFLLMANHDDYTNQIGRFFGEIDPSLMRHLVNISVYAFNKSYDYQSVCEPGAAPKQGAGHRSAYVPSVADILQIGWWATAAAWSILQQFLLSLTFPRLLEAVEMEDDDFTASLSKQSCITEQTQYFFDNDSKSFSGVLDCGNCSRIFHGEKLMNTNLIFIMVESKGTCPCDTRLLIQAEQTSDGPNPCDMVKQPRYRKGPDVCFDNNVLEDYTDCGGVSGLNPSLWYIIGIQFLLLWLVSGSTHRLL
T1 sequence (P54284 whole entry partner): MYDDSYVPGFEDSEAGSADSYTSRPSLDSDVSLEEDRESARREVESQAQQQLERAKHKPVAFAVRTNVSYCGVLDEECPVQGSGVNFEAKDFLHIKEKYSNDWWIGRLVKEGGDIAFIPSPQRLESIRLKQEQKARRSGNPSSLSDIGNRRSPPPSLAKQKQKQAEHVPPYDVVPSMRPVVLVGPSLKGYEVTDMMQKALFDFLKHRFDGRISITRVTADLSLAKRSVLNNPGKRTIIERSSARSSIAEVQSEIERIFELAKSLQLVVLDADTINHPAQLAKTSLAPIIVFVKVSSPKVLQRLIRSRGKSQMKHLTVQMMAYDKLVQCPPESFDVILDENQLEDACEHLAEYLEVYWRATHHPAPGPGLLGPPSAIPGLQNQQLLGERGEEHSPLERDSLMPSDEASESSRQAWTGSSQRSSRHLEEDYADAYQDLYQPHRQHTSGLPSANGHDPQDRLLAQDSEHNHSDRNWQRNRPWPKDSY

inhibition at 10 µM	inhibition at 30 µM	IC50	SMILES
80.5%	87.8%		CC(C)(C)NC(=O)C(C)(C)c1cc(C(=O)NC2(C(=O)NCc3cccc(C(F)(F)F)c3)CCCCC2)cc(C(C)(C)C(=O)NC(C)(C)C)c1 [Compound 76, 2,2′-(5-(1-(3-(trifluoromethyl)benzylcarbamoyl)cyclohexylcarbamoyl)-1,3-phenylene)bis(N-tert-butyl-2-methylpropanamide)]
60.3%			CC(C)(C)c1cc(C(=O)NC2(C(=O)Nc3nc4ccccc4[nH]3)CC2)cc(C(C)(C)C)n1 [Compound 19, N-(1-(1H-benzo[d]imidazol-2-ylcarbamoyl)cyclopropyl)-2,6-di-tert-butylisonicotinamide]
90.8%	100%	54.6 nM	COc1ccc(CNC(=O)C2(NC(=O)c3cc(C(C)(C)C)nc(C(C)(C)C)c3)CCCC2)cc1 [Compound 89, 2,6-di-tert-butyl-N-(1-(4-methoxybenzylcarbamoyl)cyclopentyl)isonicotinamide]
85.8%	90.5%	67.6 nM	COc1c(C(C)(C)C)cc(C(=O)NC2(C(=O)N3CCOCC3)CCCCC2)cc1C(C)(C)C [Compound 29, 3,5-di-tert-butyl-4-methoxy-N-(1-(morpholine-4-carbonyl)cyclohexyl)benzamide]
88.7%	90.3%	371 nM	CN(C)c1ccc(CNC(=O)C2(NC(=O)c3cc(C(C)(C)C)cc(C(C)(C)C)c3)CCCCC2)cc1 [Compound 48, 3,5-di-tert-butyl-N-(1-(4-(dimethylamino)benzylcarbamoyl)cyclohexyl)benzamide]
94.4%	98.6%	20.6 nM	COc1ccc(CNC(=O)C2(NC(=O)c3cc(C(C)(C)C)c(O)c(C(C)(C)C)c3)CCCCC2)cc1 [Compound 67, 3,5-di-tert-butyl-4-hydroxy-N-(1-(4-methoxybenzylcarbamoyl)cyclohexyl)benzamide]
		248 nM	CC(C)(C)c1cc(C(=O)NC2(C(=O)N3CCOCC3)CCCCC2)cc(C(C)(C)C)n1 [Compound 98, 2,6-di-tert-butyl-N-(1-(morpholine-4-carbonyl)cyclohexyl)isonicotinamide]
94.3%	88.1%	99.1 nM	CC(C)(C)c1cc(C(=O)NC2(C(=O)NCc3cccc(C(F)(F)F)c3)CCCCC2)cc(C(C)(C)C)c1 [Compound 62, 3,5-di-tert-butyl-N-(1-(3-(trifluoromethyl)benzylcarbamoyl)cyclohexyl)benzamide]
74.8%	85.8%		CC(C)(C)c1cc(CNC2(C(=O)NCc3cccc(C(F)(F)F)c3)CCCCC2)cc(C(C)(C)C)c1 [Compound 60, 1-(3,5-di-tert-butylbenzylamino)-N-(3-(trifluoromethyl)benzyl)cyclohexanecarboxamide]
103%	91.6%	44.2 nM	CC(C)(C)c1cc(C(=O)NC2(C(=O)NCc3ccc(F)cc3)CCCCC2)cc(C(C)(C)C)c1 [Compound 49, 3,5-di-tert-butyl-N-(1-(4-fluorobenzylcarbamoyl)cyclohexyl)benzamide]
88.3%	95.3%	538 nM	CC(C)(C)c1cc(C(=O)NC2(C(=O)N3CCN(Cc4ccccc4)CC3)CCCCC2)cc(C(C)(C)C)n1 [Compound 69, N-(1-(4-benzylpiperazine-1-carbonyl)cyclohexyl)-2,6-di-tert-butylisonicotinamide]
48.2%	65.9%		COc1c(C(C)(C)C)cc(CC(=O)NC2(C(=O)NCc3cccc(C(F)(F)F)c3)CCCCC2)cc1C(C)(C)C [Compound 15, 1-(2-(3,5-di-tert-butyl-4-methoxyphenyl)acetamido)-N-(3-(trifluoromethyl)benzyl)cyclohexanecarboxamide]
89%	100%		CC(C)(C#N)c1ccc(C(=O)NC2(C(=O)NCc3cccc(C(F)(F)F)c3)Cc3ccccc3C2)cc1 [Compound 55, 2-(4-(2-cyanopropan-2-yl)benzamido)-N-(3-(trifluoromethyl)benzyl)-2,3-dihydro-1H-indene-2-carboxamide]
95.7%	99.5%	25.2 nM	COc1ccc(CNC(=O)C2(NC(=O)c3cc(C(C)(C)C)cc(C(C)(C)C)c3)CCCCC2)cc1 [Compound 45, 3,5-di-tert-butyl-N-(1-(4-methoxybenzylcarbamoyl)cyclohexyl)benzamide]
93.6%	101%	545 nM	CC(C)(C)c1cc(C(=O)NC2(C(=O)Nc3ccncc3)CCCCC2)cc(C(C)(C)C)c1 [Compound 75, 3,5-di-tert-butyl-N-(1-(pyridin-4-ylcarbamoyl)cyclohexyl)benzamide]
102%	104%	273 nM	CC(C)(C)NC(=O)C(C)(C)c1ccc(C(=O)NC2(C(=O)NCc3cccc(C(F)(F)F)c3)CCCCC2)cc1 [Compound 126, 4-(1-(tert-butylamino)-2-methyl-1-oxopropan-2-yl)-N-(1-(3-(trifluoromethyl)benzylcarbamoyl)cyclohexyl)benzamide]
92.6%	101%	70.9 nM	COc1c(C(C)(C)C)cc(C(=O)NC2(C(=O)N3CCN(c4ccccc4)CC3)CCCCC2)cc1C(C)(C)C [Compound 82, 3,5-di-tert-butyl-4-methoxy-N-(1-(4-phenylpiperazine-1-carbonyl)cyclohexyl)benzamide]
97.1%		143 nM	CC(C)(C)c1cc(C(=O)NC2(C(=O)NCc3ccccn3)CC2)cc(C(C)(C)C)n1 [Compound 21, 2,6-di-tert-butyl-N-(1-(pyridin-2-ylmethylcarbamoyl)cyclopropyl)isonicotinamide]
54.7%	66%		Cc1cc(CNC(=O)C2(NC(=O)c3cc(C4CC4)cc(C4CC4)c3)CCCCC2)nn1C [Compound 6, 3,5-dicyclopropyl-N-(1-((1,5-dimethyl-1H-pyrazol-3-yl)methylcarbamoyl)cyclohexyl)benzamide]
68%	76%	355 nM	CC(C)(C)c1cc(C(=O)NC2(C(=O)Nc3ccccn3)CC2)cc(C(C)(C)C)c1O [Compound 4, 3,5-di-tert-butyl-4-hydroxy-N-(1-(pyridin-2-ylcarbamoyl)cyclopropyl)benzamide]
		143 nM	CC(C)(C)c1cc(C(=O)NC2(C(=O)NCc3ccc(S(C)(=O)=O)cc3)CCCCC2)cc(C(C)(C)C)c1 [Compound 107, 3,5-di-tert-butyl-N-(1-(4-(methylsulfonyl)benzylcarbamoyl)cyclohexyl)benzamide]
99.6%	102%	80.3 nM	CC(C)(C)c1cc(C(=O)NC2(C(=O)NCc3ccc(F)cc3F)CCCCC2)cc(C(C)(C)C)c1 [Compound 50, 3,5-di-tert-butyl-N-(1-(2,4-difluorobenzylcarbamoyl)cyclohexyl)benzamide]

SMILES	inhibition at 10 µM	inhibition at 30 µM	IC50
COc1ccc(CNC(=O)C2(NC(=O)c3cc(C(C)(C)C)nc(C(C)(C)C)c3)CCOCC2)cc1 [Compound 113, 2,6-di-tert-butyl-N-(4-(4-methoxybenzylcarbamoyl)tetrahydro-2H-pyran-4-yl)isonicotinamide]	79%	93%	59.4 nM
